Experimental data taken from the NIST ThermoML archive (doi:10.1021/je400803f).

Assay: xn = mol fraction of the nth substance listed
Details: 101 kPa, Liquid, Vibrating tube method

CCNC=O [N-ethylformamide] + CCCC[N+]1(C)CCCC1.FC(F)(F)C(F)(F)[P-](F)(F)(F)(C(F)(F)C(F)(F)F)C(F)(F)C(F)(F)F
mass density [kg/m3]
Details | 293.15 K | 298.15 K | 303.15 K | 308.15 K | 313.15 K | 318.15 K | 323.15 K
x2 = 0.0355 | 1046.38 | 1042.01 | 1037.61 | 1033.05 | 1028.58 | 1024.03 | 1019.35
x2 = 0.0753 | 1128.67 | 1124.07 | 1119.47 | 1114.62 | 1109.94 | 1105.19 | 1100.26
x2 = 0.0995 | 1169.56 | 1164.94 | 1160.15 | 1155.23 | 1150.34 | 1145.54 | 1140.56
x2 = 0.1508 | 1240.4 | 1235.52 | 1230.53 | 1225.54 | 1220.42 | 1215.44 | 1210.24
x2 = 0.2001 | 1293.64 | 1288.61 | 1283.5 | 1278.35 | 1273.19 | 1267.97 | 1262.79
x2 = 0.3045 | 1375.94 | 1370.73 | 1365.53 | 1360.23 | 1354.95 | 1349.61 | 1344.26
x2 = 0.3996 | 1429.28 | 1424.04 | 1418.68 | 1413.37 | 1407.95 | 1402.56 | 1397.21
x2 = 0.5028 | 1472.71 | 1467.38 | 1462.01 | 1456.63 | 1451.21 | 1445.76 | 1440.28
x2 = 0.5527 | 1489.92 | 1484.53 | 1479.12 | 1473.75 | 1468.31 | 1462.86 | 1457.36
x2 = 0.5989 | 1504.15 | 1498.78 | 1493.4 | 1487.95 | 1482.48 | 1477.03 | 1471.54
x2 = 0.7015 | 1531.11 | 1525.64 | 1520.2 | 1514.75 | 1509.27 | 1503.82 | 1498.32
x2 = 0.7983 | 1552.06 | 1546.66 | 1541.23 | 1535.76 | 1530.25 | 1524.73 | 1519.18
x2 = 0.8866 | 1568.75 | 1563.32 | 1557.82 | 1552.35 | 1546.84 | 1541.33 | 1535.77
x2 = 0.951 | 1580.11 | 1574.66 | 1569.19 | 1563.71 | 1558.18 | 1552.64 | 1547.05
